{
  "source": "paper PMC12931196",
  "about": "“Vm–MSI: a Vancomycin–Antimicrobial Peptide Conjugate Combating Resistant Bacteria and Broadening the Antimicrobial Spectrum” (Advanced Science, 2025)",
  "key": {"[1]": {"test_system": "S. aureus CMCC26003 persister cells", "test": "Anti‐persister cells assay", "settings": "4 µM, 48 h, after 20× MIC ciprofloxacin for 8 h"}, "A. baumannii ATCC19606": {"test_system": "A. baumannii ATCC19606", "test": "microbe, parasite or virus in culture", "settings": "Acinetobacter baumannii, ATCC19606, 18 h"}, "[2]": {"test_system": "ompR, csgA, csgD, mlrA, and rcsB expression in E. coli ATCC25922", "test": "qPCR analysis of biofilm‐related genes", "settings": "8 µM, 48 h static; qPCR ΔΔCt"}, "VRSA 52 [3]": {"test_system": "VRSA 52", "test": "microbe, parasite or virus in culture", "settings": "Staphylococcus aureus, 18 h"}, "MDR P. aeruginosa 5": {"test_system": "MDR P. aeruginosa 5", "test": "microbe, parasite or virus in culture", "settings": "Pseudomonas aeruginosa, 18 h"}, "VRSA 11": {"test_system": "VRSA 11", "test": "microbe, parasite or virus in culture", "settings": "Staphylococcus aureus, 18 h"}, "S. aureus 15192": {"test_system": "S. aureus 15192", "test": "microbe, parasite or virus in culture", "settings": "Staphylococcus aureus, 15192, 18 h"}, "S. aureus CMCC26003": {"test_system": "S. aureus CMCC26003", "test": "Antimicrobial blockade experiment using D‐Ala‐D‐Ala", "assay_type": "cell-based", "settings": "D‐Ala‐D‐Ala 0 to 128 µg mL^−1", "description": "In accordance with the experimental methods described in previous literature,^[ [42] ^]"}, "[4]": {"test_system": "VRSA 52 and E. coli ATCC25922", "test": "ROS fluorescent probe assay (DCFH‐DA)", "assay_type": "cell-based", "settings": "DCFH‐DA 10 µM, 1 h", "protocol": "In accordance with the experimental methods described in previous literature,^[ [42] ^] […] The DCFH‐DA probe (Sigma‐Aldrich, US) was then added at a final concentration of 10 µM, and the mixture was incubated for 30 min at 37 °C, protected from light. After incubation, the samples were centrifuged to remove residual DCFH‐DA. The stained bacterial solution was transferred to a 96‐well black plate and mixed with varying concentrations of drugs (vancomycin, MSI‐78, and Vm‐MSI). Polymyxin B was used as a positive control, while PBS buffer served as a negative control. The plates were incubated at 37 °C for 1 h, protected from light. Finally, fluorescence was recorded using a Tecan Infinite M1000 PRO microplate reader (Tecan, Switzerland) with an excitation wavelength of 488 nm and an emission wavelength of 525 nm."}, "VRSA 52 [5]": {"test_system": "VRSA 52", "test": "Live/dead bacteria staining (PI/SYTO9, CLSM)", "settings": "4 µM, 1 h"}, "S. typhimurium CICC21483": {"test_system": "S. typhimurium CICC21483", "test": "MIC, 2 fold broth microdilution", "assay_type": "cell-based", "settings": "Salmonella enterica, MH broth, 37 °C, 18 h, OD600, read-out: MIC", "protocol": "(§1) The 2 fold broth microdilution method was performed following previously established protocols.^[ [65], [66] ^] A total of 29 strains of human pathogenic microorganisms (11 Gram‐positive and 18 Gram‐negative) were included in the assay. Standard strains were maintained in our laboratory, and clinical isolates were obtained from the Fourth Affiliated Hospital of Soochow University. […] Gradient dilutions of the drugs (vancomycin, AMPs, and vancomycin‐AMP conjugates) were prepared in 96‐well plates, with 50 µL of each drug solution added per well. For the vancomycin and AMP mixture, 25 µL of vancomycin was combined with 25 µL of AMP at the corresponding monomer gradient concentration, resulting in a total volume of 50 µL. […] Following incubation, bacterial growth was assessed by measuring absorbance at 600 nm. The MIC was defined as the lowest concentration at which no bacterial growth was detected."}, "P. aeruginosa CMCC10104": {"test_system": "P. aeruginosa CMCC10104", "test": "MIC, 2 fold broth microdilution", "assay_type": "cell-based", "settings": "Pseudomonas aeruginosa, MH broth, 37 °C, 18 h, OD600, read-out: MIC", "protocol": "as §1"}, "P. aeruginosa 52097": {"test_system": "P. aeruginosa 52097", "test": "MIC, 2 fold broth microdilution", "assay_type": "cell-based", "settings": "Pseudomonas aeruginosa, MH broth, 37 °C, 18 h, OD600, read-out: MIC", "protocol": "as §1"}, "P. aeruginosa 60357": {"test_system": "P. aeruginosa 60357", "test": "MIC, 2 fold broth microdilution", "assay_type": "cell-based", "settings": "Pseudomonas aeruginosa, MH broth, 37 °C, 18 h, OD600, read-out: MIC", "protocol": "as §1"}, "S. flexneri CMCC51571": {"test_system": "S. flexneri CMCC51571", "test": "MIC, 2 fold broth microdilution", "assay_type": "cell-based", "settings": "Shigella flexneri, MH broth, 37 °C, 18 h, OD600, read-out: MIC", "protocol": "as §1"}, "B. cereus CMCC63301": {"test_system": "B. cereus CMCC63301", "test": "MIC, 2 fold broth microdilution", "assay_type": "cell-based", "settings": "Bacillus cereus, MH broth, 37 °C, 18 h, OD600, read-out: MIC", "protocol": "as §1"}, "S. flexneri ATCC12022": {"test_system": "S. flexneri ATCC12022", "test": "MIC, 2 fold broth microdilution", "assay_type": "cell-based", "settings": "Shigella flexneri, MH broth, 37 °C, 18 h, OD600, read-out: MIC", "protocol": "as §1"}, "[6]": {"test_system": "V. parahemolyticus ATCC17802", "test": "MIC, 2 fold broth microdilution", "assay_type": "cell-based", "settings": "MH broth, 37 °C, 18 h, OD600, read-out: MIC", "protocol": "as §1"}, "MDR A. baumannii 1": {"test_system": "MDR A. baumannii 1", "test": "microbe, parasite or virus in culture", "settings": "Acinetobacter baumannii, 18 h"}, "S. typhimurium ATCC14028": {"test_system": "S. typhimurium ATCC14028", "test": "microbe, parasite or virus in culture", "settings": "Salmonella enterica, 18 h"}, "[7]": {"test_system": "E. coli ATCC25922 biofilms", "settings": "8 µM, 4 h, SYTO9/PI CLSM"}, "E. faecalis ATCC29212": {"test_system": "E. faecalis ATCC29212", "test": "microbe, parasite or virus in culture", "settings": "Enterococcus faecalis, ATCC29212, 18 h"}, "E. faecalis 2": {"test_system": "E. faecalis 2", "test": "microbe, parasite or virus in culture", "settings": "Enterococcus faecalis, 2, 18 h"}, "MDR K. pneumoniae 4": {"test_system": "MDR K. pneumoniae 4", "test": "microbe, parasite or virus in culture", "settings": "Klebsiella pneumoniae, 18 h"}, "VRSA 52 [8]": {"test_system": "VRSA 52", "test": "Mouse skin infection model", "assay_type": "in vivo, BALB/c mice"}, "MDR K. pneumoniae 3": {"test_system": "MDR K. pneumoniae 3", "test": "microbe, parasite or virus in culture", "settings": "Klebsiella pneumoniae, 18 h"}, "MRSA ATCC43300": {"test_system": "MRSA ATCC43300", "test": "microbe, parasite or virus in culture", "settings": "Staphylococcus aureus, 18 h"}},
  "note": "Values joined by “and” are separate entries in the source; they are usually repeats but may differ in a detail not shown here. Identical values can stand only once.",
  "data": [
    {"smiles": "CN[C@H](CC(C)C)C(=O)N[C@H]1C(=O)N[C@@H](CC(N)=O)C(=O)N[C@H]2C(=O)N[C@H]3C(=O)N[C@H](C(=O)N[C@H](C(=O)O)c4cc(O)cc(O)c4-c4cc3ccc4O)[C@H](O)c3ccc(c(Cl)c3)Oc3cc2cc(c3O[C@@H]2O[C@H](CO)[C@@H](O)[C@H](O)[C@H]2O[C@H]2C[C@](C)(N)[C@H](O)[C@H](C)O2)Oc2ccc(cc2Cl)[C@H]1O", "note": "[Vm, vancomycin]", "values": [
      {"measurement": "reduction in the number of persister cells", "setting": "[1]", "value": "one‐order reduction"},
      {"measurement": "MIC", "setting": "A. baumannii ATCC19606", "value": "> 67.3 µM and > 100 µg/mL"},
      {"measurement": "csgA expression relative to control", "setting": "[2]", "value": 0.8},
      {"measurement": "csgD expression relative to control", "setting": "[2]", "value": 0.6},
      {"measurement": "rcsB up‐regulation relative to control", "setting": "[2]", "value": 1.5, "unit": "fold"},
      {"measurement": "MIC", "setting": "VRSA 52 [3]", "value": "> 67.3 µM and > 100 µg/mL"},
      {"measurement": "MIC", "setting": "MDR P. aeruginosa 5", "value": "> 67.3", "unit": "µM"},
      {"measurement": "MIC", "setting": "VRSA 11", "value": "> 67.3 µM and > 100 µg/mL"},
      {"measurement": "MIC", "setting": "S. aureus 15192", "value": "0.4 µM and 0.59 µg/mL"},
      {"measurement": "fold increase in the MIC value on exogenous addition of D‐Ala‐D‐Ala", "setting": "S. aureus CMCC26003", "value": "> 25", "unit": "fold"},
      {"measurement": "intracellular ROS production", "setting": "[4]", "value": "did not induce ROS production"},
      {"measurement": "bacterial mortality", "setting": "VRSA 52 [5]", "value": 2, "unit": "%"},
      {"measurement": "MIC", "setting": "S. typhimurium CICC21483", "value": "> 67.3", "unit": "µM"},
      {"measurement": "MIC", "setting": "P. aeruginosa CMCC10104", "value": "> 67.3", "unit": "µM"},
      {"measurement": "MIC", "setting": "P. aeruginosa 52097", "value": "> 67.3", "unit": "µM"},
      {"measurement": "MIC", "setting": "P. aeruginosa 60357", "value": "> 67.3", "unit": "µM"},
      {"measurement": "MIC", "setting": "S. flexneri CMCC51571", "value": "> 67.3", "unit": "µM"},
      {"measurement": "MIC", "setting": "B. cereus CMCC63301", "value": 50.5, "unit": "µM"},
      {"measurement": "MIC", "setting": "S. flexneri ATCC12022", "value": 50.5, "unit": "µM"},
      {"measurement": "MIC", "setting": "[6]", "value": 50.5, "unit": "µM"},
      {"measurement": "MIC", "setting": "MDR A. baumannii 1", "value": "> 67.3", "unit": "µM"},
      {"measurement": "MIC", "setting": "S. typhimurium ATCC14028", "value": "> 67.3 µM and > 100 µg/mL"},
      {"measurement": "killing at the bottom of the biofilm", "setting": "[7]", "value": 20, "unit": "%"},
      {"measurement": "killing at the surface of the biofilm", "setting": "[7]", "value": 60, "unit": "%"},
      {"measurement": "MIC", "setting": "E. faecalis ATCC29212", "value": "> 67.3 µM and > 100 µg/mL"},
      {"measurement": "MIC", "setting": "E. faecalis 2", "value": "> 67.3", "unit": "µM"},
      {"measurement": "MIC", "setting": "MDR K. pneumoniae 4", "value": "> 67.3", "unit": "µM"},
      {"measurement": "reduction in bacterial count within the wound", "setting": "VRSA 52 [8]; topical 2 mg kg^−1 at 6, 24 and 48 h post‐infection, VRSA 52 1 × 10^8 CFU mL^−1, wound CFU after 3 days", "value": "≈ 30%"},
      {"measurement": "pro‐inflammatory cytokines TNF‐α and IL‐6 at the infection site", "setting": "VRSA 52 [8]; topical 2 mg kg^−1 ×3, ELISA of wound supernatant", "value": "didn't effectively decrease"},
      {"measurement": "skin wound healing", "setting": "VRSA 52 [8]; topical 2 mg kg^−1 ×3, observed to day 12", "value": "remained unhealed"},
      {"measurement": "MIC", "setting": "MDR K. pneumoniae 3", "value": "> 67.3", "unit": "µM"},
      {"measurement": "MIC", "setting": "MRSA ATCC43300", "value": "3.16 µM and 4.69 µg/mL"}
    ]}
  ]
}
